Experimental data published in US11382878B2, “Use of metformin and sodium butyrate for treating conditions induced by chronic inflammation” (Johnpro Biotech Inc., priority 2017, dated 2022).

Tests used:
[1] = system: radiation induced inflammation of the rectum; assay: Radiation induced rectum inflammation in mice (gross rectum observation, H&E staining)
[2] = system: radiation proctitis; assay: Clinical case: radiation proctitis patient treated by enema; format: in vivo, human; settings: one patient, grade 3 radiation proctitis, sulfasalazine and steroids enema treatment for 6 months

SMILES | stool in the rectum (rectum mucosa function of absorbing water) ([1]; 30 Gy radiation on Day 1, rectal enema once daily Day 8 to Day 14, observed Day 14 (FIG. 4A, 4B)) | crypt tissue / damage to the intestine mucosa (H&E stain) ([1]; 30 Gy radiation on Day 1, rectal enema once daily Day 8 to Day 14, rectum samples Day 14 (FIG. 5A)) | response of symptoms to prior treatment [2]
C[C@]12CCC(=O)C=C1CC[C@@H]1[C@@H]2C(=O)C[C@@]2(C)[C@H]1CC[C@]2(O)C(=O)CO [cortisone] | a significant amount of loose stool was seen in the rectum | the crypt tissue was not observed | 
O=C(O)c1cc(/N=N/c2ccc(S(=O)(=O)Nc3ccccn3)cc2)ccc1O [sulfasalazine] |  |  | refractory
